This is an account of results in US20050142254A1 (priority 2003, published 2005).

The format of data set [1] is biochemical. The procedure: […]. Here, 25 μL of 400 μM hemin suspension was added to it and incubated at 30° C. for 30 minutes. The final concentration of each component was: AFB1, 16 μM; hydrogen peroxide, 500 μM; Tween 80, 1%; hemin, 100 μM.
After the reaction, HPLC and TLC analyses were performed to confirm the degradation of AFB1 and the formation of reaction product. The equal amount of ethyl acetate was added to the reaction mixture, and extraction was done by mixing with a Voltex mixer for 1 minute. The resulting mixture was centrifuged at 10,000×g for 2 minutes, and the ethyl acetate layer (upper layer) was recovered in a new 0.5-mL microtube.
The extract was used for HPLC analysis in succession. The separation column used was a silica column, Shim-pack CLC-SIL (0.46×15 cm). […].
AFB1 degradation was performed at 30° C. for 30 minutes in the same manner as in Example 1 except that the amount of hemin added was varied.
After the reaction, the amount of remaining AFB1 and that of AFQ1 formed were measured quantitatively by HPLC.
AFB1 degradation was performed at 30° C. for 30 minutes in the same manner as in Example 1 except that the amount of hydrogen peroxide added was varied.
After the reaction, amount of the remaining AFB1 and that of AFQ1 formed were measured quantitatively by HPLC.
(§1) AFB1 degradation was performed at 50° C. for 6 hours in the presence or absence of hemin with the same reaction mixture as used in Example 1. After the reaction, the reaction mixture was subjected to the mutagenicity test with Umlac. Ten percent of DMSO aqueous solution was prepared as a control without AFB1, and then subjected to the same mutagenicity test.

Another data set relates to umu gene. The class given is cell-based. The procedure: Mutagenecity test was performed with the AFB1 degradation reaction mixture after hemin treatment. In the test, a conventional mutagenicity test kit “Umlac” (Nippon Antibody Laboratory) was used. Umlac is a kit for short-period mutagenicity test, umu-test, which was developed by Shinagawa (Research Institute for Microbial Diseases, Osaka University), et al. The test is to measure the expression level of umu gene using β-galactosidase activity as an index. The umu gene is considered to be a kind of SOS gene whose expression is induced by DNA-damaging chemicals, and known to be directly concerned with mutation. It has been confirmed that test result of “Umlac” well correlates with those of the Ames test and the carcinogenicity test that are currently used for typical mutagenicity test.
as §1
Higher umu gene expression represents higher mutagenicity. The control value represents no mutagenicity.

Data set [2] is classed as physicochemical. An excerpt:
(§2) We also confirmed that AFQ1 degradation is accelerated by heat, and it occurs non-enzymatically. Horseradish peroxidase (HRP) has a strong AFB1-degrading activity as well as hemin.

Data set [3] is classed as biochemical.
Text: as §2
This is another data set of the same source.

Data set [4] is classed as biochemical. The note with it: pH 7.5.
A short description of data set [5]: Bisphenol A (BPA) degradation with hemin, HPLC. The class given is biochemical. The note with it: 100 μM hemin, 400 μM BPA, 500 μM hydrogen peroxide, 30° C., reaction for 6 hours. The method, then: […]. hydrogen peroxide, 500 μM; Tween 80, 1%; hemin, 100 μM.
BPA degradation was confirmed by HPLC. After the reaction, a portion (100 μL) of the reaction mixture was taken, added to the equal amount of ethyl acetate, and extracted for 1 minute by mixing with a Voltex mixer. The mixture was centrifuged at 10,000×g for 2 minutes, and the ethyl acetate layer (upper layer) was recovered in a new 0.5-mL microtube.
HPLC analysis was conducted using the extract. The column used was STR ODS-II (0.46×15 cm). For the mobile phase for BPA quantification, 50% acetonitrile aqueous solution containing 0.1% trifluoroacetic acid was used at the flow rate of 0.7 mL/min. A UV-visible spectrophotometric detector (Shimadzu SPD-6AV) was used at the absorbance wave length of 277 nm for BPA detection.
For the mobile phase for the detection of BPA degradation product, 30% acetonitrile aqueous solution containing 0.1% trifluoroacetic acid was used at the flow rate of 0.5 mL/min. The absorbance at wave length of 280 nm was monitored for this detection.

Data set [6] in a line: Aniline degradation with hemin, HPLC. It counts as biochemical. The note with it: 10 μM hemin, 50 μM aniline, 500 μM hydrogen peroxide, 30° C., reaction for 3 hours. The procedure: […]. Under this condition, the reaction mixture was uniform, thus no detergent was added to it.
After the reaction, equal amount of ethyl acetate was added to the reaction mixture, and extraction was done by mixing with a Voltex mixer for 1 minute, and then centrifuged at 10,000×g for 2 minutes. The resulting aniline-containing ethyl acetate layer (upper layer) was recovered in a new 0.5-mL microtube.
The ethyl acetate extract was directly subjected to HPLC analysis to determine the amount of remaining aniline. The column used was STRODS-II (0.46×15 cm). For mobile phase, 10% acetonitrile aqueous solution was used at the flow rate of 0.5 mL/min. With a UV-visible spectrophotometric detector (Shimadzu SPD-6AV), the absorbance at wave length of 280 nm was monitored for aniline detection.

Like-named read-outs stand apart in the source and are kept apart here. A value given as a limit tells only on which side of the number the result lay.

Take `COc1cc2c(c3oc(=O)c4c(c13)CCC4=O)C1C=COC1O2` (stereo not shown) [AFB1, aflatoxin B1]: the “remaining AFB1” value in data set [1] is 12 µM. In the data set on umu gene, the “umu Gene Expression (OD620)” value is given as 1.185.
Take `COc1cc2c(c3oc(=O)c4c(c13)C(O)CC4=O)C1C=COC1O2` (stereo not shown) [AFQ1, aflatoxin Q1]: the “AFQ1 degradation, effect of temperature” value in data set [2] was “degraded much rapidly at 50 °C than 30 °C”.
Turning to HRP: Horseradish peroxidase, the “AFQ1-degradation rate, presence vs absence of HRP” value in data set [2] (1 μM AFQ1 in phosphate buffer, 30° C. or 50° C.) is reported as “no significant difference”. Also, in data set [3], the AFB1-degrading activity result is recorded as “strong”.
In the case of hemin, in data set [1] (200 μM hemin, 16 μM AFB1, 30° C. for 30 minutes), the AFB1 degraded result was “approximately 25%”. The “change in AFB1-degradation efficiency depending on hydrogen peroxide concentration” value in data set [1] (hemin, hydrogen peroxide 1.0 mM to 10 mM, 30° C. for 30 minutes) is reported as “no significant increase”. The “remaining AFB1” value in data set [1] (reaction mixture with hemin, 16 μM AFB1, 50° C. for 6 hours) is at most 0.16 µM. Further, the AFB1 added degraded result in data set [1] (reaction mixture with hemin, 50° C. for 6 hours) is “more than 99%”. Moreover, in data set [4], the “aflatoxin M1 disappeared” value worked out at 36%. For the same compound, the “umu Gene Expression (OD620)” value with umu gene (reaction mixture with AFB1 and hemin, treatment at 50° C. for 6 hours) is given as 0.523. For the same compound, in data set [5], the “amount of BPA relative to that initially added” value is 18%. Also, the “aniline relative to that initially added” value in data set [6] is reported as 45%.
